Source: publication PMC7956625, “Optimization and Anti-Cancer Properties of Fluoromethylketones as Covalent Inhibitors for Ubiquitin C-Terminal Hydrolase L1” (Molecules, 2021)
“Also recorded” adds a separate entry of the source. Read-outs that look alike come from different tables or passages of the source. Where a SMILES comes first, the peptide text is derived from it. The star is where a group is joined. Cbz = O=C(OCc1ccccc1)*; CH2F = FC*

Experiments:
SW1271 cells [1] = experiment: SW1271 cell viability assay; format: cell-based; conditions: 100 µM, 24 h
Experimental: UCHL1 is a key promoter of cell invasion and metastasis in small cell lung cancer but not necessarily required for cell viability or proliferation. Thus, we chose to assess the efficacy of targeting UCHL1 using the SW1271 small cell lung cancer cell line. […] The Ub-ABP assay was used to confirm on target engagement of UCHL1 within these cells.
Luciferase-constructed cancer cells were seeded in 96-well plates at 10,000 cells/well with the compounds at the indicated concentrations. DMSO was used as vehicle control. Luminescence readings were acquired after adding 1% D-luciferin (GoldBio, St. Louis, MO, USA) after 24 h. Cell viability was determined by the ratio of luminescence reading compared to the one at 0 h, and normalized to vehicle control.

UCHL1 [2] = molecular target: T1, UCHL1 (Homo sapiens, UniProt P09936); experiment: Fluorescence-based Ub-Rho deubiquitinase activity assay; format: biochemical; design: made in house; conditions: for IC50: 3 h of preincubation with UCHL1, technical triplicate, averages
T1 sequence (P09936 1-223): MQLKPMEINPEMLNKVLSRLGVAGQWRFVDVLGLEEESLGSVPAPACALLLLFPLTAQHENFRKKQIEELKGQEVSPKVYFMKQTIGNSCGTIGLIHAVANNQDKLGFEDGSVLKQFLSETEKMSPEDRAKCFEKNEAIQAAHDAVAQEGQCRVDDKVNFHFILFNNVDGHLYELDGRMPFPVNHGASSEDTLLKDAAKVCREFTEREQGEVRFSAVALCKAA
Experimental: Thus, a 3-h preincubation period was selected for the structure-activity relationship (SAR) comparison of all analogs to ensure full reaction time and for consistent comparison of activity against UCHL1 within the scaffold. […] A 10 mM stock solution was made for each inhibitor in DMSO, then a dilution of 600 µM in reaction buffer was made followed eight by 1:1 serial dilutions. […] These were allowed to incubate, while sealed, for the 3 h at room temperature. […] The % activity was plotted as a function of inhibitor concentration and the data was fitted with non-linear regression analysis to calculate the IC50 values. Errors are reported as the 95% confidence interval calculated from experiments collected in technical triplicate.

SW1271 cells [3] = experiment: Scratch wound healing cell migration assay; format: cell-based; conditions: 100 µM, 24 h
Experimental: The same experiments were performed on wild type SW1271 cells treated with fluoromethylketone analogs. Molecules 1 and 34 were first assessed for their effect on cell viability at 100 µM to determine if any observed reduction in cell viability may influence the migration assays (Figure 9E). […] Due to the slow reactive nature of the inhibitor and the modest potency the anti-migratory efficacy of these analogs may be improved with longer duration of treatment or increasing the frequency of treatment. Further studies are underway to elucidate the role UCHL1 plays in the migratory cellular pathways using both genetic depletion and inhibitor approaches.
Wild-type or shRNA treated UCHL1 knockdown SW1271 cells were seeded in 12-well plates at 1 million cells/well. The cells were cultured overnight to grow as a confluent single layer. The cross-style wounds were created using pipet tips to scratch on the single layer of cells. The compounds were prepared in full growth media at the desired concentrations and added after the wounds were created. DMSO was used as the vehicle control. Photos of the wounds were captured immediately after adding treatments at 0 h. Photos of the wounds were captured at 0 and 24 h. The areas of cross-style wounds were quantified using Image J 1.52a software. The migration rate (%) was defined as the percentage of area at each timepoint compared to the one at 0 h.

UCHL3 = molecular target: T2, UCHL3 (Homo sapiens, UniProt P15374); experiment: Fluorescence-based Ub-Rho deubiquitinase activity assay; format: biochemical; design: His (N); made in house; conditions: top concentration of 200 µM; Figure S1
T2 sequence (P15374 1-230): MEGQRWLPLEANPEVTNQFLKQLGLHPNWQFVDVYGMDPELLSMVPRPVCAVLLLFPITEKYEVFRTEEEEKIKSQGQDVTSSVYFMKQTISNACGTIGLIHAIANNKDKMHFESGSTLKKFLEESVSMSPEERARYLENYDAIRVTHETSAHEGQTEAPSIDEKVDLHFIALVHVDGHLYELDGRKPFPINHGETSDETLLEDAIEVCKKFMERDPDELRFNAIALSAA
Experimental: The in vitro inhibition of UCHL1 was determined by monitoring the cleavage of rhodamine 110 from substrate Rhodamine110-ubiquitin (Ub-Rho). […]. Thus, a 3-h preincubation period was selected for the structure-activity relationship (SAR) comparison of all analogs to ensure full reaction time and for consistent comparison of activity against UCHL1 within the scaffold. […]. The assay was performed in black 384-well plates (Catalog #12566624, Fisher, Waltham, MA, USA). DUB stock solutions were diluted in reaction buffer (50 mm Tris pH 7.6, 0.5 mm EDTA, 5 mm DTT, 0.1 % (w/v) BSA) to a concentration of 2.5 nM for UCHL1 or 0.025 nM for UCHL3. […] Plates were read immediately and fluorescence of cleaved Rhodamine 110 fluorophore was monitored at λex = 485 nm, λem = 535 nm continuously for 20 min on a Synergy Neo2 instrument (BioTek, Winooski, VT, USA) The raw data was loaded into GraphPad Prism 8 (GraphPad Software, San Diego, CA, USA; www.graphpad.com, accessed on 12 January 2021) and the slope of the linear portion of the fluorescence vs. time curves was calculation for each inhibitor concentration and % activity of the enzyme was determined compared to DMSO-treated controls. […] Errors are reported as the 95% confidence interval calculated from experiments collected in technical triplicate.

UCHL1 [4] = molecular target: T1, UCHL1; experiment: Time-dependent inhibitor analysis (kinact/KI); format: biochemical; design: made in house
Experimental: Irreversible covalent inhibitors may be further characterized by determining the reversible binding constant (KI) as well as the rate of the covalent bond formation under saturating conditions (kinact). By determining the IC50 over the course of various timepoints, the pseudo first-order rate constant (kobs) could be calculated. […] The % activity of each inhibitor concentration was the plotted vs. time of pre-incubation and the slope of this plot is the pseudo first-order rate constant (kobs) for inhibition at each concentration. The kobs was plotted as a function of inhibitor concentration and then fit to the equation Y = kinactX/(KI + X) to calculate kinact, KI and kinact/KI as described by Resnick et al..

SMILES | SW1271 cell viability (SW1271 cells [1]) | IC50 (UCHL1 [2]; read-out: IC50) [µM] | fold more active than 1 versus UCHL1 (UCHL1 [2]; IC50 comparison, 3 h preincubation) | migration of SW1271 cells compared to DMSO control (SW1271 cells [3]) | activity versus UCHL3 (UCHL3) | improvement of KI compared with 1 (UCHL1 [4]) | kinact (UCHL1 [4]) [s⁻¹] | kinact/KI (UCHL1 [4]) [M⁻¹ s⁻¹] | Ki (UCHL1 [4]; reversible binding constant of covalent inhibition, read-out: KI) [µM] | IC50 (UCHL1 [2]; IC50 (µM)) [µM] | Ki (UCHL1 [4]) [µM]
C#Cc1ccc(COC(=O)N[C@H](C(=O)N[C@@H](C)C(=O)N[C@@H](CCC(=O)OC)C(=O)CF)C(C)C)cc1 [Cpd 34] | no effect on the cell viability; also recorded: did not reduce SW1271 cell viability; also recorded: neither 1 nor 34 displayed cytotoxic effect; also recorded: does not exhibit any cellular toxicity | 7.7 | approximately 3 fold | significantly reduced the ability of the cells to migrate; also recorded: anti-migratory properties | no observable activity | greater than 3 fold | 0.0136 | 810 | 16.8 |  | 
COC(=O)CC[C@H](NC(=O)[C@H](C)NC(=O)[C@@H](NC(=O)OCc1ccccc1)C(C)C)C(=O)CF [Cpd 1, benzyloxycarbonyl-Val-Ala-Glu(γ-methoxy)-fluoromethylketone] (Cbz-Val-Ala-Glu(OMe)-CH2F) | no effect on the cell viability; also recorded: neither 1 nor 34 displayed cytotoxic effect |  |  | the same reduction of migratory ability was not observed | no activity |  |  |  |  | 24 | 60
